Laboratory results reported in PMC11931645, “Semisynthetic derivatives of massarilactone D with cytotoxic and nematicidal activities” (Beilstein Journal of Organic Chemistry, 2025).
Entries after “also recorded” stand apart in the source; their conditions may differ. Like-named read-outs stand apart in the source and are kept apart here.

Tests used:
[1] = test system: human cervix carcinoma KB-3-1; experiment: Cytotoxicity, MTT method, KB-3-1; assay type: cell-based; settings: KB 3-1, 120 h, 5 days incubation, na: not active, read-out: IC50 KB3.1
Protocol: (§1) The cytotoxicity against the murine fibroblasts L929, human cervix carcinoma KB-3-1, human lung carcinoma A549, human prostate cancer PC-3, epidermoid carcinoma A431, ovarian carcinoma SKOV-3, and breast cancer MCF-7 cell lines was determined by using the MTT (2-(4,5-dimethylthiazol-2-yl)-2,5-diphenyltetrazolium bromide) method in 96-well microplates as previously described. Briefly, the cell lines were cultured in DMEM (Gibco), 60 µL aliquots of serial dilutions from an initial stock of 1 mg/mL in MeOH of the test compounds were added to 120 µL aliquots of a cell suspension (5 × 10^4 cells/mL) in 96-well microplates. After 5 days incubation, an MTT assay was performed, and the absorbance measured at 590 nm using an ELISA plate reader (Victor). The concentration at which the growth of cells was inhibited to 50% of the control (IC50) was obtained from the dose–response curves. Epothilone B was used as the positive control.

Caenorhabditis elegans = experiment: Nematicidal activity, microtiter plate assay; assay type: cell-based; settings: for LD50 / LD90 / nematicidal activity (in words): C. elegans; for LD50 / LD90: tested at 100, 50, 25 and 12.5 μg/mL, no: not obtained; for mortality: at concentrations of 50 and 100 μg/mL
Protocol: Nematicidal activity was performed using Caenorhabditis elegans in a microtiter plate assay as described by Rupcic et al. (2018). The assay was performed in four concentrations (100, 50, 25 and 12.5 μg/mL). Ivermectin was used as a positive control at the same concentration ranges as the tested compounds and MeOH was used as a negative control. Percentages of mortality were calculated, then the results were expressed as a LD90 and LD50.

murine fibroblasts L929 = experiment: Cytotoxicity, MTT method, L929; assay type: cell-based; settings: Mus musculus, L929, 120 h, read-out: IC50 L929
Protocol: as §1

[2] = test system: L929, KB3-1, A549, PC-3, A431, SKOV-3 and MCF-7 cell lines; experiment: Cytotoxicity, MTT method, statements over the cell line panel; assay type: cell-based
Protocol: as §1

breast cancer MCF-7 = experiment: Cytotoxicity, MTT method, MCF-7; assay type: cell-based; settings: Homo sapiens, MCF7, 120 h, read-out: IC50 MCF-7
Protocol: as §1

[3] = test system: human prostate cancer PC-3; experiment: Cytotoxicity, MTT method, PC-3; assay type: cell-based; settings: 120 h, read-out: IC50 PC-3
Protocol: as §1

SKMEL-28 = test system: SKMEL-28; set-up: method as in PMID 36006179; settings: human cancer cell line; cited from earlier work
A549 = test system: A549; set-up: method as in PMID 36006179; settings: human cancer cell line; cited from earlier work
Hs683 = test system: Hs683; set-up: method as in PMID 36006179; settings: human cancer cell line; cited from earlier work
[4] = test system: human lung carcinoma A549; experiment: Cytotoxicity, MTT method, A549; assay type: cell-based; settings: A549, 120 h, 5 days incubation, na: not active
Protocol: as §1

ovarian carcinoma SKOV-3 = experiment: Cytotoxicity, MTT method, SKOV-3; assay type: cell-based; settings: Homo sapiens, SK-OV-3, 120 h, 5 days incubation, na: not active
Protocol: as §1

[5] = test system: epidermoid carcinoma A431; experiment: Cytotoxicity, MTT method, A431; assay type: cell-based; settings: Homo sapiens, A-431, 120 h, 5 days incubation, na: not active
Protocol: as §1

[6] = set-up: method as in PMID 28991218; settings: cited from earlier work
[7] = set-up: method as in PMID 28991218; settings: cited from earlier work; remark: listed apart in the source
[8] = MTT, 5 days incubation, na: not active
[9] = read-out: IC50 values, range against the L929 and KB3-1 cell lines
[10] = all tested cell lines, read-out: IC50 values, range against all the tested cell lines

Compound | IC50 [1] [µM] | LD50 (Caenorhabditis elegans) | LD90 (Caenorhabditis elegans) | mortality (Caenorhabditis elegans) | IC50 (murine fibroblasts L929; [8]) [µM] | cytotoxic activity (in words) ([2]; all tested cell lines) | also measured
C/C=C/C(=O)O[C@H]1C2=C(O[C@@H](/C=C/C)[C@@H]1O)[C@@](C)(OC)OC2=O [Compound 7, massarilactone D 4-O-crotonyl-7-O-methyl] | 55.6 | not obtained and no | no | some mortality | 61.7 |  | IC50 [2, 9]: 18.5 to 61.7 µM
C/C=C/C(=O)O[C@H]1C2=C(O[C@@H](/C=C/C)[C@@H]1O)[C@@](C)(OC(=O)/C=C/C)OC2=O [Compound 8, massarilactone D 4,7-di-O-crotonyl] | 18.5 | not obtained and no | no | some mortality | 50.3 |  | IC50 [2, 9]: 18.5 to 61.7 µM
C/C(=C\c1csc(C)n1)[C@@H]1C[C@@H]2O[C@]2(C)CCC[C@H](C)[C@H](O)[C@@H](C)C(=O)C(C)(C)[C@@H](O)CC(=O)O1 [epothilone B, Epothilone B, reference compound] |  |  |  |  |  |  | IC50 (breast cancer MCF-7): 7.5e-05 µM; IC50 [3]: 9.1e-05 µM; IC50 (murine fibroblasts L929): 0.0022 µM
C=C1OC(=O)C2=C1OC(/C=C/C)C(O)C2O (stereo not drawn) [massarilactone H] |  |  |  |  |  |  | IC50 (SKMEL-28): 35.2 µM; IC50 (A549): 32.9 µM; IC50 (Hs683): 31.5 µM
C=C1OC(=O)C2=C1O[C@@H](/C=C/C)[C@H](OC(=O)/C=C/c1ccccc1)[C@H]2OC(=O)/C=C/c1ccccc1 [Compound 3, massarilactone H 3,4-di-O-trans-cinnamoyl] | 7.85 |  |  |  | 5.58 | significant cytotoxicity | IC50 (breast cancer MCF-7; [8]): 3.51 µM; IC50 [3, 8]: 7.64 µM; IC50 [4]: 19.6 µM; IC50 (ovarian carcinoma SKOV-3): 13.2 µM; IC50 [5]: 4.34 µM; nematicidal activity (in words) (Caenorhabditis elegans): did not exhibit nematicidal activity; IC50 [2, 10]: 3.51 to 32.7 µM
C/C=C/[C@@H]1OC2=C(C(=O)O[C@]2(C)O)[C@H](O)[C@H]1O [Compound 1, Massarilactone D] |  | not obtained and no | no | some mortality |  | not active | antimicrobial activity (in words) [6]: did not exhibit significant antimicrobial; cytotoxic activity (in words) [7]: did not exhibit significant antimicrobial or cytotoxic activities
C=C(C)C(=O)O[C@H]1[C@H](/C=C/C)OC2=C(C(=O)O[C@]2(C)OC(=O)C2(C)CCC(C)=C(Cl)O2)[C@@H]1OC(=O)C(=C)C (stereo partly drawn) [Compound 2, massarilactone D 3,4-di-O-methacryloyl-7-O-(6-chloro-3,4-dihydro-2,5-dimethyl-2H-pyran-2-carbonyl)] | 13.1 |  |  |  | 5.09 | significant cytotoxicity | IC50 (breast cancer MCF-7; [8]): 7.09 µM; IC50 [3, 8]: 11.8 µM; IC50 [4]: 32.7 µM; IC50 (ovarian carcinoma SKOV-3): 11.8 µM; IC50 [5]: 4 µM; IC50 [2, 10]: 3.51 to 32.7 µM
C/C=C/[C@@H]1OC2=C(C(=O)O[C@]2(C)OC(=O)/C=C/c2ccccc2)[C@H](OC(=O)/C=C/c2ccccc2)[C@H]1OC(=O)/C=C/c1ccccc1 [Compound 4, massarilactone D 3,4,7-tri-O-trans-cinnamoyl] |  | 12.5 µg/mL | 100 µg/mL |  |  |  | nematicidal activity (in words) (Caenorhabditis elegans): potent activity against nematodes; also recorded: good nematicidal activity
C/C=C/[C@@H]1OC2=C(C(=O)O[C@]2(C)O)[C@H](O)[C@H]1OC(=O)/C(C)=C/C [Compound 6, massarilactone D 7-O-trans-2-methyl-2-butenoyl] |  | not obtained and no | no | some mortality |  |  | 
C/C=C/[C@@H]1OC2=C(C(=O)O[C@]2(C)OC(=O)c2ccc(Br)cc2)[C@H](OC(=O)c2ccc(Br)cc2)[C@H]1OC(=O)c1ccc(Br)cc1 [Compound 5, massarilactone D 3,4,7-tri-O-bromobenzoyl] |  | 100 µg/mL | not obtained and no |  |  |  | 
